Activity calls are given as the source filed them.
What was measured:
CAAX prenyl protease 2 = CAAX prenyl protease 2 (Saccharomyces cerevisiae S288c, UniProt Q03530); format: biochemical
CAAX prenyl protease 1 = CAAX prenyl protease 1 (Saccharomyces cerevisiae S288c, UniProt P47154); experiment: Ste24 protease inhibitors, dose response, biochemical, S. cerevisiae, plate reader, cherry-pick (AID 488815)
Trypsin = Trypsin (Sus scrofa, UniProt P00761); experiment: porcine trypsin inhibitors, dose response, selectivity assay for Rce1 protease inhibitor project, biochemical, quenched peptide fluorescence, cherry-pick (AID 488789)
Trypsin, sequence (P00761 whole entry): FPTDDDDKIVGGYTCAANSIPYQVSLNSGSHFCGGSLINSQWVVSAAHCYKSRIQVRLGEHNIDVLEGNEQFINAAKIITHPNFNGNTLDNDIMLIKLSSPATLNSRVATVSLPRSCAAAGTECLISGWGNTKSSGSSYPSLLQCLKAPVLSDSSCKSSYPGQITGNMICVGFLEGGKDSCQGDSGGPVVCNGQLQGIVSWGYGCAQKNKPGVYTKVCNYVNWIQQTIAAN

[1] = target: T1, Kappa-type opioid receptor (Homo sapiens, UniProt P41145); experiment: SAR analysis of small molecule agonists of the kappa opioid receptor via a luminescent beta-arrestin assay. [Related pubchem assays (depositor defined):AID1777, AID1786, AID1966, AID2133, AID2136, AID2348, AID2352, AID2357, AID2359, AID2370, AID2420, AID2478, AID2491, AID2492, AID2493, AID2497, AID2498, AID2500, AID449737, AID488822, AID488842]; format: functional
T1 sequence (P41145 whole entry): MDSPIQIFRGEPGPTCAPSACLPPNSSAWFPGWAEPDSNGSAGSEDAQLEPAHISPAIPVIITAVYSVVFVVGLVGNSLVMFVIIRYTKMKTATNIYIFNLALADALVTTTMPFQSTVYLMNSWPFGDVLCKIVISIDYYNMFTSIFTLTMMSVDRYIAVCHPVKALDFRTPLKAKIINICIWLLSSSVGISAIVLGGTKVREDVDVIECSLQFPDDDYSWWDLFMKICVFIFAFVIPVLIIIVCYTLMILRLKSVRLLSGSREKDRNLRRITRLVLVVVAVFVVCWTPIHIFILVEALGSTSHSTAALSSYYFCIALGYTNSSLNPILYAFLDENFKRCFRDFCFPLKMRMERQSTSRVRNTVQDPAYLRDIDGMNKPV

[2] = target: T1, Kappa-type opioid receptor; format: functional
[3] = target: T2, Delta-type opioid receptor (Homo sapiens, UniProt P41143); experiment: HTS Image-Based Screen for Antagonists of the DOR Receptor. [Related pubchem assays (depositor defined):AID1777, AID1785, AID1786, AID2133]; format: functional
T2 sequence (P41143 whole entry): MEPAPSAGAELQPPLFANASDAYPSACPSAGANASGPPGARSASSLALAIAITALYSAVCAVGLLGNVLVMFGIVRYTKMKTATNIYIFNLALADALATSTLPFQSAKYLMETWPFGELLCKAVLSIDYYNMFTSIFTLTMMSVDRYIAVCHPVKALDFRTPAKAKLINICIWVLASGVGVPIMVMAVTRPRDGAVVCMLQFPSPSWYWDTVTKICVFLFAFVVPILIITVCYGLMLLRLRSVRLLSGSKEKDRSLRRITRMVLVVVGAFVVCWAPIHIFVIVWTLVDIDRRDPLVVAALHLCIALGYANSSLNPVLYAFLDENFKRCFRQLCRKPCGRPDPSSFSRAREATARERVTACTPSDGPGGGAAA

[4] = target: T1, Kappa-type opioid receptor; experiment: SAR analysis of small molecule agonists of the kappa opioid receptor via a luminescent beta-arrestin assay - Set 3. [Related pubchem assays (depositor defined):AID1777, AID1785, AID1786, AID1966, AID2133, AID2136, AID2284, AID2500]; format: functional
[5] = target: T2, Delta-type opioid receptor; experiment: HTS Image-Based Screen for Agonists of the DOR Receptor. [Related pubchem assays (depositor defined):AID1777, AID1786, AID2133]; format: functional
[6] = target: T2, Delta-type opioid receptor; experiment: DOR agonists, SAR follow-up, image-based (AID 2370); format: functional
Mu-type opioid receptor [7] = target: T3, Mu-type opioid receptor (Homo sapiens, UniProt P35372); experiment: HTS Image-Based Screen for Agonists of the MOR Receptor. [Related pubchem assays (depositor defined):AID1777, AID1785, AID1786, AID2133]; format: functional
T3 sequence (P35372 whole entry): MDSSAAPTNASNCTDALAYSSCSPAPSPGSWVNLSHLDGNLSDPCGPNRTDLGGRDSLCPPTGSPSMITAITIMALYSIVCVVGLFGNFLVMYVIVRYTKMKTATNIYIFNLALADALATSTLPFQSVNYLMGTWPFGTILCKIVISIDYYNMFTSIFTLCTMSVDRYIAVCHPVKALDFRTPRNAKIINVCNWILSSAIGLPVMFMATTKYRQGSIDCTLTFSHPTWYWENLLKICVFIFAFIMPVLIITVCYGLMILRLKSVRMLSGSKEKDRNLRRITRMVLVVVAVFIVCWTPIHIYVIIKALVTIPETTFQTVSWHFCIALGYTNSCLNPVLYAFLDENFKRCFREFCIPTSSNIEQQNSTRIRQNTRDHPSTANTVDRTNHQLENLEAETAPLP

[8] = target: T1, Kappa-type opioid receptor; experiment: KOR antagonists by imaging, SAR follow-up, image-based (AID 2348); format: functional
Mu-type opioid receptor [9] = target: T3, Mu-type opioid receptor; experiment: MOR antagonists, SAR follow-up, image-based (AID 2420); format: functional;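 also: compounds added before stimulation of receptor with agonist DAMGO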
[10] = target: T1, Kappa-type opioid receptor; format: functional; remark: listed apart in the source
[11] = target: T2, Delta-type opioid receptor; experiment: DOR antagonists, SAR follow-up, image-based (AID 2357); format: functional
Mu-type opioid receptor [12] = target: T3, Mu-type opioid receptor; experiment: MOR agonists by imaging, SAR follow-up, image-based (AID 2352); format: functional
Escherichia coli = experiment: microbe, parasite or virus in culture
[13] = insulin promoter down-regulators in MIN6 cells, imaging, high-content screening, mouse beta cells (AID 1628); format: functional
[14] = cytotoxicity in MIN6 insulinoma cells, dose response, cytotoxicity control, cell-based, mouse insulinoma (AID 2122); format: functional;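 also: confirmatory high-throughput counterscreen run to flag cytotoxic compounds; mouse MIN-6 beta cells carrying an insulin promoter eGFP reporter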

CAAX prenyl protease 1, sequence (P47154 whole entry): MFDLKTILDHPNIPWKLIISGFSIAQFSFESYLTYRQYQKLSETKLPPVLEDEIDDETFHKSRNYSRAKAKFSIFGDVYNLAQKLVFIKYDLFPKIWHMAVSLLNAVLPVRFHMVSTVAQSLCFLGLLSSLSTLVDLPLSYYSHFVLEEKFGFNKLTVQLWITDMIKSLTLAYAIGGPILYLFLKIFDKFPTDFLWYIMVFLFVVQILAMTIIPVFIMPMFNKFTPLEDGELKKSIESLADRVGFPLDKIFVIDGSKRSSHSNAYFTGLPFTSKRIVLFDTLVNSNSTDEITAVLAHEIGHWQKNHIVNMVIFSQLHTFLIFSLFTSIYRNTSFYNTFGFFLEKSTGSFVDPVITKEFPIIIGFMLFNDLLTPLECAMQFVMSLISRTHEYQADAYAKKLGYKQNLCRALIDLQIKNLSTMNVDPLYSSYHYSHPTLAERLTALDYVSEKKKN
CAAX prenyl protease 2, sequence (Q03530 whole entry): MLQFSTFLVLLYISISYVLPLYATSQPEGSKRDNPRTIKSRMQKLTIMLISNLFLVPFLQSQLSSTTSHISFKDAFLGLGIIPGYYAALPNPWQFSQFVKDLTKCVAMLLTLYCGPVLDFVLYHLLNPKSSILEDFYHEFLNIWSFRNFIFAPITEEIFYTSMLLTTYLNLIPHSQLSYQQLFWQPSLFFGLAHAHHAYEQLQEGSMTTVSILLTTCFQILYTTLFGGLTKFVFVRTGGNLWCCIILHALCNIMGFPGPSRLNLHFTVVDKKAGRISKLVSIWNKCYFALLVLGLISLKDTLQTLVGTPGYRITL

## CCCCN1C(=O)/C(=C/Nc2cccnc2Cl)C(=O)N(CCCCl)C1=O
CAAX prenyl protease 2
  AC50: 40.4 µM (active)
CAAX prenyl protease 1
  AC50: 7.88 µM (active)
Trypsin
  AC50: 47.1 µM (active)

## CCCCN(Cc1cc2cc(C)ccc2[nH]c1=O)C(=O)c1ccccn1
[1]
  EC50: 7.69 µM (active)
[2]
  EC50: 4.95 µM
[3]
  IC50: > 32 µM (inactive)
[4]
  EC50: 8.38 µM (active)
[5]
  EC50: > 32 µM (inactive)
[6]
  EC50: > 32 µM (inactive)
Mu-type opioid receptor [7]
  EC50: > 32 µM (inactive)
[8]
  IC50: > 32 µM (inactive)
Mu-type opioid receptor [9]
  IC50: > 32 µM (inactive)
[10]
  EC50: 4.84 µM
[11]
  IC50: > 32 µM (inactive)
Mu-type opioid receptor [12]
  EC50: > 32 µM (inactive)

## COc1cc(SC)ccc1C(=O)Nc1cc(C)ccn1
Escherichia coli
  AC50: 31.5 µM (active)

## N=c1ccn(Cc2ccc(Cl)c(Cl)c2)cc1
[13]
  IC50: 3.32 µM (active)
[14]
  IC50: 4.07 µM (active)

Reference: ChEMBL document CHEMBL1201862, “PubChem BioAssay data set” (2004)
